According to US5604263A, “Treating osteoporosis with humulones” (Hoechst Japan Limited, priority 1994, dated 1997):
Read-outs that look alike come from different tables or passages of the source. One block for each molecule: values may come before it.

Test system: bone resorption (pit formation) by bone cell containing osteoclasts
Experiment: Pit formation assay (bone resorption inhibiting activity; absorption cavities on ivory pieces)
Type: cell-based, ICR mice
Details: for No. of pits (Mean ± SD): control 328.0 ± 51.0; for IC50 / inhibition at 10 µM / inhibition at 1 µM / inhibition at 0.1 µM / inhibition at 0.01 µM / inhibition at 0.001 µM / inhibition at 0.0001 µM / inhibition at 10 pM: Mus musculus, Osteoclast; for IC50: read-out: 50% inhibitory (ID50) value
Protocol: From 10 to 11-day old ICR mice (purchased from Charles River Inc.) were extracted femur and shank, which were then chopped using scissors in a-MEM medium (purchased from Flow Laboratories Inc.) containing 5% FBS (purchased from Irving Scientific Inc.), 100 U/ml penicillin and 100 μg/ml streptomycin. And further, the resulting supernatant was recovered by pipetting, washed with the medium and then suspended in 5% FBS, a-MEM medium to form bone cell containing osteoclasts. The bone cell suspension thus prepared was incubated in the medium containing rat parathyroid hormone for one week. After completion of the incubation, the cells were recovered using 0.05% trypsin EDTA-PBS and applied to pit formation assay.
An ivory piece was cut to a thickness of 150 μm using a precision low speed cutter (purchased from Buehler GmbH) and then round pieces with a diameter of 6 mm were cut out using a one-hole punch. These ivory pieces were immersed in 70% ethanol, subjected to sonication twice for each 5 minutes and then washed three times with sterile PBS and twice with the medium. These ivory pieces were placed in a 96-well culture plate (purchased from Falcon Inc.) and 100 µl of the medium containing medicaments at various concentrations was added. Then, 100 μl of the media containing the above prepared bone cells 1×10^5 was added to each well. Incubation was carried out at 37° C. in a 10% CO2 incubator for 2 days. After completion of the incubation, the cell over the ivory piece was removed, absorption cavities were stained with Coomassie Brilliant Blue and the number of the absorption cavities thus formed was counted under microscope.
Organosynthetic humulone was prepared according to Obara, H. et al., Bull. Chem. Soc. Jpn., vol.62, p.3034-3035 (1989). Bone resorption inhibiting activities of the organosynthetic humulone thus obtained and α acids obtained in example 1 were determined by means of the assay as described in (2) of example 2.
Bone resorption inhibiting activities of the native humulone thus obtained in Example 4 and the organosynthetic humulone thus obtained in Example 3 were determined by means of the assay as described in (2) of example 2.

- IC50 (Example 5): 5.9 nM
Structure (SMILES): CC(C)=CCC1=C(O)C(C(=O)CC(C)C)=C(O)C(O)(CC=C(C)C)C1=O (single isomer, unassigned) [Native humulone, humulone]
- No. of pits (Mean ± SD) (Example 5, dose 10^-5 M): 0.3 ± 0.5
- No. of pits (Mean ± SD) (Example 5, dose 10^-6 M): 6.5 ± 3.8
- No. of pits (Mean ± SD) (Example 5, dose 10^-7 M): 34.5 ± 7.4
- No. of pits (Mean ± SD) (Example 5, dose 10^-8 M): 128.5 ± 23.1
- No. of pits (Mean ± SD) (Example 5, dose 10^-9 M): 251.5 ± 135.4
- No. of pits (Mean ± SD) (Example 5, dose 10^-10 M): 274.3 ± 54.9
- No. of pits (Mean ± SD) (Example 5, dose 10^-11 M): 274.3 ± 91.6
- inhibition at 10 µM (Example 5, dose 10^-5 M): 99.9%
- inhibition at 1 µM (Example 5, dose 10^-6 M): 98%
- inhibition at 0.1 µM (Example 5, dose 10^-7 M): 89.5%
- inhibition at 0.01 µM (Example 5, dose 10^-8 M): 60.8%
- inhibition at 0.001 µM (Example 5, dose 10^-9 M): 23.3%
- inhibition at 0.0001 µM (Example 5, dose 10^-10 M): 16.4%
- inhibition at 10 pM (Example 5, dose 10^-11 M): 16.4%

- IC50 (Example 3, organosynthetic humulone and α acids of example 1): 130 nM
- IC50 (Example 5): 26 nM
Structure (SMILES): CC(C)=CCC1C(=O)C(C(=O)CC(C)C)=C(O)C(O)(CC=C(C)C)C1=O (stereo not shown) [Organosynthetic humulone, humulone]
- No. of pits (Mean ± SD) (Example 5, dose 10^-5 M): 6.8 ± 5.3
- No. of pits (Mean ± SD) (Example 5, dose 10^-6 M): 33.7 ± 20.2
- No. of pits (Mean ± SD) (Example 5, dose 10^-7 M): 70.7 ± 9.3
- No. of pits (Mean ± SD) (Example 5, dose 10^-8 M): 217.0 ± 89.1
- No. of pits (Mean ± SD) (Example 5, dose 10^-9 M): 221.8 ± 88.3
- No. of pits (Mean ± SD) (Example 5, dose 10^-10 M): 221.3 ± 54.1
- No. of pits (Mean ± SD) (Example 5, dose 10^-11 M): 281.3 ± 38.1
- inhibition at 10 µM (Example 5, dose 10^-5 M): 97.9%
- inhibition at 1 µM (Example 5, dose 10^-6 M): 89.7%
- inhibition at 0.1 µM (Example 5, dose 10^-7 M): 78.4%
- inhibition at 0.01 µM (Example 5, dose 10^-8 M): 33.8%
- inhibition at 0.001 µM (Example 5, dose 10^-9 M): 32.4%
- inhibition at 0.0001 µM (Example 5, dose 10^-10 M): 32.5%
- inhibition at 10 pM (Example 5, dose 10^-11 M): 14.2%
